The text below walks through data of PubChem BioAssay (NCI).

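Step 1: Grow cells in 96-well plates. Step 2: Expose to compound for 48 hours at 5 concentrations. Step 3: Interpolate endpoints linearly; if unreached, use highest concentration. At the TGI there is no net growth.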

Among the test systems are UACC-257 melanoma; NCI-H522 lung; SW-620 colon; NCI-H460 lung; RXF 393 renal; SNB-19 CNS; DU-145 prostate; SK-MEL-5 melanoma; UO-31 renal; COLO 205 colon.
Test in all cases: growth of human tumour cells (NCI), 48 h

Consider `COc1cc2c(/C=C3/C(=O)Nc4ccccc43)c(Cl)[nH]c2cc1C`, for which the TGI in the experiment on UACC-257 melanoma is over 45.8 µM; in the experiment with NCI-H522 lung, 2.4 µM; in the experiment on SW-620 colon it was 59 µM; in the experiment on NCI-H460 lung, 15.7 µM; with RXF 393 renal it was 24 µM; with SNB-19 CNS, 17.5 µM. Further, the TGI in the experiment on DU-145 prostate turned out to be 1.08 µM; with SK-MEL-5 melanoma it was 1.42 µM; with UO-31 renal, 20.7 µM; in the experiment on COLO 205 colon it was 1.73 µM.
`CCC(=O)Oc1c2ccsc2c(OC(=O)CC)c2ccsc12`: the TGI came out at 0.333 µM in the experiment on UACC-257 melanoma; 2.06 µM with NCI-H522 lung; 2.33 µM in the experiment on SW-620 colon; 3.87 µM in the experiment on NCI-H460 lung; 2.69 µM in the experiment with RXF 393 renal; 1.58 µM with SNB-19 CNS. The TGI in the experiment on DU-145 prostate is 0.679 µM; in the experiment with SK-MEL-5 melanoma, 0.216 µM; with UO-31 renal it was 1.45 µM; in the experiment with COLO 205 colon it was 10.6 µM.
Consider `O=[N+]([O-])c1ccc(NC(=S)N=Nc2c(O)[nH]c3ccc(Br)cc23)cc1`, for which the TGI was found to be 29.8 µM in the experiment with UACC-257 melanoma; 27.5 µM in the experiment on NCI-H522 lung; 30 µM with SW-620 colon; 21.2 µM in the experiment with NCI-H460 lung; 26.5 µM with RXF 393 renal; 24.2 µM with DU-145 prostate. The TGI came to 33.4 µM in the experiment with SK-MEL-5 melanoma and 56.5 µM with COLO 205 colon.
Consider `CC1(C)CNC(=O)C2(C=NC(C)(C)CNC(=O)C3(C=N1)CCCO3)CCCO2` (centres undefined), for which the TGI in the experiment with UACC-257 melanoma, in the experiment on NCI-H522 lung, with SW-620 colon, in the experiment on RXF 393 renal, with SNB-19 CNS and in the experiment with DU-145 prostate was over 10 µM throughout. Further, the TGI with SK-MEL-5 melanoma and in the experiment with COLO 205 colon was over 10 µM in each case.
`Nc1ccc(S(=O)(=O)Nc2nc3ccccc3nc2N2CCCCC2)cc1`: the TGI in the experiment with UACC-257 melanoma, in the experiment with NCI-H522 lung, with SW-620 colon, in the experiment on NCI-H460 lung, in the experiment with RXF 393 renal and in the experiment on SNB-19 CNS was over 100 µM in each case. For the same compound, the TGI with DU-145 prostate is over 100 µM; in the experiment on SK-MEL-5 melanoma, over 100 µM; in the experiment on UO-31 renal, 55.1 µM; in the experiment on COLO 205 colon, over 100 µM.
As to `NC(=O)c1cc2ccccc2o/c1=N/O`, the TGI in the experiment on UACC-257 melanoma, in the experiment with NCI-H522 lung, in the experiment with SW-620 colon, in the experiment with NCI-H460 lung, in the experiment on RXF 393 renal and with SNB-19 CNS was over 100 µM throughout. The TGI in the experiment with DU-145 prostate, with SK-MEL-5 melanoma, in the experiment with UO-31 renal and in the experiment with COLO 205 colon was over 100 µM in each case.
For the compound `CNC(=O)N(CCC#N)[C@H]1CCCC[C@@H]1N(C(=O)NC)c1ccccc1`, the TGI in the experiment with UACC-257 melanoma, in the experiment with NCI-H522 lung, in the experiment with SW-620 colon, in the experiment on NCI-H460 lung, with RXF 393 renal and in the experiment with SNB-19 CNS was over 100 µM each time. Moreover, the TGI in the experiment on DU-145 prostate, with SK-MEL-5 melanoma, with UO-31 renal and in the experiment on COLO 205 colon was over 100 µM each time.
With `COc1c(C)c2nc3ccccc3[nH]c2c2c(=O)ccnc12`, the TGI is over 100 µM with UACC-257 melanoma; over 100 µM in the experiment with NCI-H522 lung; over 100 µM with SW-620 colon; over 100 µM with NCI-H460 lung; 71.7 µM in the experiment with RXF 393 renal; over 100 µM in the experiment with SNB-19 CNS. The TGI in the experiment on DU-145 prostate, in the experiment on SK-MEL-5 melanoma, in the experiment with UO-31 renal and in the experiment with COLO 205 colon was over 100 µM throughout.
Take `CC1(C)C=C(S(=O)(=O)c2ccccc2)Oc2ccccc2O1`: the TGI with UACC-257 melanoma, in the experiment on NCI-H522 lung, with SW-620 colon, in the experiment with NCI-H460 lung, in the experiment on RXF 393 renal and with SNB-19 CNS was over 100 µM each time. The TGI in the experiment on DU-145 prostate is over 100 µM; in the experiment on SK-MEL-5 melanoma, 28.9 µM; in the experiment with UO-31 renal, 86.2 µM; with COLO 205 colon it was 35.1 µM.
With `c1ccc(/C(=N/Nc2ccccn2)c2ncccn2)cc1`, the TGI in the experiment with NCI-H522 lung is 0.679 µM; with SW-620 colon, over 20.2 µM; in the experiment on NCI-H460 lung, over 57.8 µM; in the experiment on RXF 393 renal, over 100 µM; with SNB-19 CNS, over 100 µM; in the experiment on DU-145 prostate, over 100 µM. Also, the TGI was 26.9 µM in the experiment on SK-MEL-5 melanoma, 6.27 µM with UO-31 renal and over 71.2 µM with COLO 205 colon.
Take `Brc1ccc2c(-c3csc(-c4c[nH]c5ccc(Br)cc45)n3)c[nH]c2c1`: the TGI was 23.1 µM in the experiment on UACC-257 melanoma; 4.95 µM in the experiment with NCI-H522 lung; 28.3 µM with SW-620 colon; 6.89 µM in the experiment with NCI-H460 lung; 9.55 µM in the experiment on RXF 393 renal; 14.7 µM in the experiment on SNB-19 CNS. For the same compound, the TGI is 15.5 µM in the experiment on DU-145 prostate, 12.8 µM with SK-MEL-5 melanoma, 14.4 µM with UO-31 renal and over 26.7 µM with COLO 205 colon.
`Cc1nc(C)c(Cc2ccccc2)o1`: the TGI in the experiment on UACC-257 melanoma, in the experiment with NCI-H522 lung, in the experiment with SW-620 colon, in the experiment with NCI-H460 lung, with RXF 393 renal and in the experiment with SNB-19 CNS was over 100 µM each time. Also, the TGI in the experiment on DU-145 prostate, in the experiment on SK-MEL-5 melanoma, in the experiment with UO-31 renal and in the experiment on COLO 205 colon was over 100 µM throughout.
Turning to `CCCCc1ccc(Nc2nc3c(ncn3COCCO)c(=O)[nH]2)cc1`, the TGI in the experiment on UACC-257 melanoma, with NCI-H522 lung, in the experiment on SW-620 colon, in the experiment on RXF 393 renal, in the experiment on SNB-19 CNS and with DU-145 prostate was over 100 µM in each case. The TGI with SK-MEL-5 melanoma, with UO-31 renal and with COLO 205 colon was over 100 µM throughout.
With `COc1cc(I)c2c3c1OC1C34CCN(C)C(C2)C4=CC(I)C1(OC)OC` (centres undefined), the TGI in the experiment with UACC-257 melanoma turned out to be 49.4 µM; with NCI-H522 lung, 44.2 µM; in the experiment with SW-620 colon, 52.2 µM; in the experiment on NCI-H460 lung, 38.7 µM; in the experiment with RXF 393 renal, 38.2 µM; in the experiment on SNB-19 CNS, 71.9 µM. Also, the TGI is 47.5 µM in the experiment with DU-145 prostate, 34 µM in the experiment with SK-MEL-5 melanoma, 34.7 µM with UO-31 renal and 45.2 µM in the experiment on COLO 205 colon.
